According to patent publication US10543247B2, “Aloe preparation for skin enhancement” (Woodcliff Skincare Solutions, Inc., priority 2007, dated 2020):

How the values were obtained:
human TLR2 = biological target: T1, human TLR2 (Homo sapiens, UniProt O60603); test: TLR2 expression vector experiment: HEK 293 cells with NF-kappa B reporter and pDUO-hCD14/TLR2; format: cell-based; settings: HEK 293 cells expressing TLR2 and CD14; 6 hours; FIG. 10B
T1 construct: host or cells: HEK 293 cells, transient transfection by electroporation
Method: HEK 293 cells were cultured in DMEM/F12 medium supplemented with fetal bovine serum (10%) and 1% penicillin-streptomycin at 37° C., under 5% CO2. Actively growing cells were transiently transfected with the appropriate plasmid(s) using electroporation (at 150 V and one 70-ms pulse). Following electroporation, cells were plated at a density of 5×10^4 cells in 200 μl/well of culture medium. After 48 hours, agents to be tested were added to transfected cells. Six hours after addition of samples, cells were harvested and luciferase activity measured. The NF-kappa B plasmid construct (pBIIXLUC) contained two copies of NF-kappa B motif from HIV/IgK. Plasmids co-expressing human CD14 and human TLR2 (pDUO-hCD14/TLR2) were purchased from InvivoGen. Zymosan was purchased from Sigma, Staphylococcus aureus peptidoglycan from Fluka and ultra pure Salmonella minnesota LPS from List Biological Laboratories, Inc.
FIGS. 10A-10B depict that AloeEx (batch 2-5-05) acts through TLR2. HEK 293 cells (cell line with minimal TLR expression) were transiently transfected with a luciferase reporter gene construct containing two binding sites for NF-kappa B, alone (FIG. 10A), or in combination with the pDUO-hCD14/TLR2 expression plasmid (FIG. 10B). […] Luciferase activity was determined 6 hours after addition of agents.

scald hyperalgesia = settings: compared with phenylbutazone; cited from earlier work

T1 sequence (O60603 21-784): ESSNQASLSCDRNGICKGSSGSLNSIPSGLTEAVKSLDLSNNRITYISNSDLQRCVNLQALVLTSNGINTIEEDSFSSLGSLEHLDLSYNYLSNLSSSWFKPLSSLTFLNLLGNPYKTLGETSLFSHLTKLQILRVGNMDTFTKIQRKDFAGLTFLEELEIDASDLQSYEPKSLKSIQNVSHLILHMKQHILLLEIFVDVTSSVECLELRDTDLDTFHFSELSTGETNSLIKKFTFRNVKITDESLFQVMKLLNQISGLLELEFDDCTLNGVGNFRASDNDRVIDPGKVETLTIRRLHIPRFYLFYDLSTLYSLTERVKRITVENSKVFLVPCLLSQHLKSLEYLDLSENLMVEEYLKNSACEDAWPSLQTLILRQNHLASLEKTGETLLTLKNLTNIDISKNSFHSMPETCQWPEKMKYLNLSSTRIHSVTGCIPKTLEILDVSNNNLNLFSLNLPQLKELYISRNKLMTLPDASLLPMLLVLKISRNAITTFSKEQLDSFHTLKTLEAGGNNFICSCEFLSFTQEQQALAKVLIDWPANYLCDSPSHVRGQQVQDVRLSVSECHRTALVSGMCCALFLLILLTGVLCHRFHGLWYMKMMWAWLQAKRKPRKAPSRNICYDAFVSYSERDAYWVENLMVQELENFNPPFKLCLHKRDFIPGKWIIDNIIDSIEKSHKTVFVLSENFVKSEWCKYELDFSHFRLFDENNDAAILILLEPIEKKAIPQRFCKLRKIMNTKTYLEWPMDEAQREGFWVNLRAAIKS

## peptidoglycan
Human TLR2
  activation of NF-kappa B: also activated NF-kappa B

## O-acetylated-D-mannan [O-acetylated-D-mannan (T-2-HN)]
Scald hyperalgesia
  inhibitory effect on scald hyperalgesia: more marked inhibitory effect than phenylbutazone
